Measured values taken from article PMC6915728 (Nature Communications, 2019).
Read-outs that look alike come from different tables or passages of the source.

What was measured:
[1] = tested on: AMP-evolved E. coli lines; assay: Cross-resistance / collateral sensitivity: relative MIC change of 38 laboratory-evolved AMP-resistant lines vs parental strain; assay type: cell-based, Escherichia coli; settings: measured here
[2] = tested on: bacterial species in which the gene showed activity; settings: cited from earlier work
E. coli BW25113 ΔmlaD = assay: MIC, serial broth dilution, mlaD knockout strain vs wild type; assay type: cell-based, Escherichia coli; settings: mlaD deletion strain vs control E. coli BW25113; average of 3 replicates

TSSPPAAVVVRRRRRRRRRRRRRRRRRRR [PROA, Protamine, source herring, purchased from Sigma-Aldrich; cluster C3]
Relative change in MIC (MIC of the AMP-adpated line / MIC of the ancestral strain) ([1]; AMP-adapted line BAC5_3): 1.1
Relative change in MIC (MIC of the AMP-adpated line / MIC of the ancestral strain) ([1]; AMP-adapted line BAC5_5): 1.015
Relative change in MIC (MIC of the AMP-adpated line / MIC of the ancestral strain) ([1]; AMP-adapted line BAC5_7): 1.44
Relative change in MIC (MIC of the AMP-adpated line / MIC of the ancestral strain) ([1]; AMP-adapted line BAC5_10): 1.728
Relative change in MIC (MIC of the AMP-adpated line / MIC of the ancestral strain) ([1]; AMP-adapted line CAP18_2): 1.2
Relative change in MIC (MIC of the AMP-adpated line / MIC of the ancestral strain) ([1]; AMP-adapted line CAP18_5): 0.7622
Relative change in MIC (MIC of the AMP-adpated line / MIC of the ancestral strain) ([1]; AMP-adapted line CAP18_6): 0.7622
Relative change in MIC (MIC of the AMP-adpated line / MIC of the ancestral strain) ([1]; AMP-adapted line CAP18_8): 1.22
Relative change in MIC (MIC of the AMP-adpated line / MIC of the ancestral strain) ([1]; AMP-adapted line CAP18_10): 1.44
Relative change in MIC (MIC of the AMP-adpated line / MIC of the ancestral strain) ([1]; AMP-adapted line HBD3_3): 1.464
Relative change in MIC (MIC of the AMP-adpated line / MIC of the ancestral strain) ([1]; AMP-adapted line HBD3_6): 0.7639
Relative change in MIC (MIC of the AMP-adpated line / MIC of the ancestral strain) ([1]; AMP-adapted line HBD3_8): 1.22
Relative change in MIC (MIC of the AMP-adpated line / MIC of the ancestral strain) ([1]; AMP-adapted line HBD3_10): 1.584
Relative change in MIC (MIC of the AMP-adpated line / MIC of the ancestral strain) ([1]; AMP-adapted line LL37_1): 0.7044
Relative change in MIC (MIC of the AMP-adpated line / MIC of the ancestral strain) ([1]; AMP-adapted line LL37_3): 0.7622
Relative change in MIC (MIC of the AMP-adpated line / MIC of the ancestral strain) ([1]; AMP-adapted line LL37_6): 0.48
Relative change in MIC (MIC of the AMP-adpated line / MIC of the ancestral strain) ([1]; AMP-adapted line LL37_7): 1
Relative change in MIC (MIC of the AMP-adpated line / MIC of the ancestral strain) ([1]; AMP-adapted line LL37_10): 0.48
Relative change in MIC (MIC of the AMP-adpated line / MIC of the ancestral strain) ([1]; AMP-adapted line PEX_1): 1.2
Relative change in MIC (MIC of the AMP-adpated line / MIC of the ancestral strain) ([1]; AMP-adapted line PEX_4): 1.728
Relative change in MIC (MIC of the AMP-adpated line / MIC of the ancestral strain) ([1]; AMP-adapted line PEX_5): 0.915
Relative change in MIC (MIC of the AMP-adpated line / MIC of the ancestral strain) ([1]; AMP-adapted line PEX_6): 2.0736
Relative change in MIC (MIC of the AMP-adpated line / MIC of the ancestral strain) ([1]; AMP-adapted line PEX_7): 0.8472
Relative change in MIC (MIC of the AMP-adpated line / MIC of the ancestral strain) ([1]; AMP-adapted line PR39_1): 2.99
Relative change in MIC (MIC of the AMP-adpated line / MIC of the ancestral strain) ([1]; AMP-adapted line PR39_2): 1.2
Relative change in MIC (MIC of the AMP-adpated line / MIC of the ancestral strain) ([1]; AMP-adapted line PR39_5): 1.2
Relative change in MIC (MIC of the AMP-adpated line / MIC of the ancestral strain) ([1]; AMP-adapted line PR39_7): 1.73
Relative change in MIC (MIC of the AMP-adpated line / MIC of the ancestral strain) ([1]; AMP-adapted line PR39_10): 1.44
Relative change in MIC (MIC of the AMP-adpated line / MIC of the ancestral strain) ([1]; AMP-adapted line PXB_2): 1.7568
Relative change in MIC (MIC of the AMP-adpated line / MIC of the ancestral strain) ([1]; AMP-adapted line PXB_5): 0.8333
Relative change in MIC (MIC of the AMP-adpated line / MIC of the ancestral strain) ([1]; AMP-adapted line PXB_6): 1
Relative change in MIC (MIC of the AMP-adpated line / MIC of the ancestral strain) ([1]; AMP-adapted line PXB_8): 1
Relative change in MIC (MIC of the AMP-adpated line / MIC of the ancestral strain) ([1]; AMP-adapted line PXB_10): 1.44
Gene that modulates bacterial susceptibility to the AMP ([2]; Burkholderia cenocepacia, ref http://www.microbiologyresearch.org/docserver/fulltext/micro/155/9/2818.pdf?expires=1468919235&id=id&accname=guest&checksum=2CEA64BA8195145BE72C98BB20076627): zmpA
Gene that modulates bacterial susceptibility to the AMP ([2]; Burkholderia cenocepacia, ref http://www.microbiologyresearch.org/docserver/fulltext/micro/155/9/2818.pdf?expires=1468919235&id=id&accname=guest&checksum=2CEA64BA8195145BE72C98BB20076628): zmpB
Gene that modulates bacterial susceptibility to the AMP ([2]; Enterobacteriaceae, ref https://www.ncbi.nlm.nih.gov/pmc/articles/PMC3264287/, https://onlinelibrary.wiley.com/doi/full/10.1111/j.1348-0421.2010.00238.x, https://jb.asm.org/content/180/15/4002.full): ompT
Gene that modulates bacterial susceptibility to the AMP ([2]; Klebsiella pneumoniae, ref http://iai.asm.org/content/72/12/7107.full.pdf+html): cps
Gene that modulates bacterial susceptibility to the AMP ([2]; Proteus mirabilis, ref http://aac.asm.org/content/45/7/2030.long): sapD
Gene that modulates bacterial susceptibility to the AMP ([2]; Pseudomonas aeruginosa, Salmonella typhimurium, Escherichia coli, ref http://www.sciencemag.org/content/286/5444/1561.full.pdf, http://onlinelibrary.wiley.com/doi/10.1111/j.1365-2958.1995.tb02299.x/abstract, http://www.ncbi.nlm.nih.gov/pmc/articles/PMC50673/pdf/pnas01098-0300.pdf, https://jb.asm.org/content/jb/182/14/4077.full.pdf): phoP (PhoPQ)
Gene that modulates bacterial susceptibility to the AMP ([2]; Salmonella Typhimurium LT2, ref https://doi.org/10.1093/jac/dkq059): hemC (hem operon)
Gene that modulates bacterial susceptibility to the AMP ([2]; Salmonella enterica serovar Typhimurium, ref http://www.microbiologyresearch.org/docserver/fulltext/micro/154/2/666.pdf?expires=1487718158&id=id&accname=guest&checksum=D8B884D02A8B2A8619216A48E0826377): yejA
Gene that modulates bacterial susceptibility to the AMP ([2]; Salmonella enterica, Escherichia coli, ref http://www.ncbi.nlm.nih.gov/pmc/articles/PMC395316/pdf/emboj00065-0046.pdf http://www.ncbi.nlm.nih.gov/pmc/articles/PMC538956/pdf/1013-04.pd): sapA
Gene that modulates bacterial susceptibility to the AMP ([2]; Salmonella typhimurium, Escherichia coli, ref https://www.ncbi.nlm.nih.gov/pmc/articles/PMC3037666/, https://www.ncbi.nlm.nih.gov/pmc/articles/PMC3837802/pdf/zam7770.pdf): cpxA (CpxA/CpxR)
Gene that modulates bacterial susceptibility to the AMP ([2]; Salmonella typhimurium, Escherichia coli, ref https://www.ncbi.nlm.nih.gov/pmc/articles/PMC3037666/, https://www.ncbi.nlm.nih.gov/pmc/articles/PMC4808223/): amiA, amiC
Gene that modulates bacterial susceptibility to the AMP ([2]; Salmonella typhimurium, ref https://www.ncbi.nlm.nih.gov/pmc/articles/PMC3037666/): tatA
Gene that modulates bacterial susceptibility to the AMP ([2]; Staphylococcus aureus, SalmonellaTyphimurium, ref http://ac.els-cdn.com/S0022202X15369608/1-s2.0-S0022202X15369608-main.pdf?_tid=6fa51c80-693e-11e6-b18c-00000aacb362&acdnat=1471962936_8118358d97a056d7d78b5e8b4ca8d03b, https://www.sciencedirect.com/science/article/pii/S0928824401002917): hemB
Average relative change in MIC (E. coli BW25113 ΔmlaD): 0.43
